Reference: PubChem BioAssay AID1963443 (Molecular Pharmacology Branch, DTP, NCI, 2024)

System: MDA-MB-231 complex spheroids, growth inhibition
Experiment: Anticancer human tumor MDA-MB-231 cell line growth inhibition [Asc];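 also: spheroids exposed to compounds for 7 days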
Conditions: for IC50: curve of first compound; for viability, T/C: stronger effect = lower value
Method in brief: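 Tumor cells were grown as complex spheroids with human endothelial cells (HUVEC) and human mesenchymal stem cells as stroma. Agents were tested alone and in combination, in half-log steps down from the clinical Cmax, or from 10 microM where Cmax was unknown.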

SMILES: CCN1C(C(=O)NC23CCC(C(=O)O)(CC2)CC3)C(c2cccc(Cl)c2F)C2(C(=O)Nc3cc(Cl)ccc32)C12CCCCC2 (stereo not given) + Cc1c(S(C)(=O)=O)c(-c2cc(F)cc(N3CCN(c4ccc(NS(=O)(=O)c5ccc(NC(CCN6CCC(C(=O)OCCCP(=O)(O)O)CC6)CSc6ccccc6)c(S(=O)(=O)C(F)(F)F)c5)cc4)CC3)c2)c(-c2ccc(Cl)cc2)n1C(C)C
- IC50 (second compound 0.1 µM): > 3 µM
- IC50 (second compound 0.316 µM): > 3 µM
- IC50 (second compound 1 µM): > 3 µM
- IC50 (second compound 3.16 µM): > 3 µM
- IC50 (second compound 10 µM): > 3 µM
- viability, T/C (second compound 0.1 µM, first compound 0.00949 µM): 90%
- viability, T/C (second compound 0.1 µM, first compound 0.03 µM): 82.6%
- viability, T/C (second compound 0.1 µM, first compound 0.0949 µM): 103%
- viability, T/C (second compound 0.1 µM, first compound 0.3 µM): 103%
- viability, T/C (second compound 0.1 µM, first compound 0.949 µM): 101%
- viability, T/C (second compound 0.1 µM, first compound 3 µM): 108%
- viability, T/C (second compound 0.316 µM, first compound 0.00949 µM): 104%
- viability, T/C (second compound 0.316 µM, first compound 0.03 µM): 105%
- viability, T/C (second compound 0.316 µM, first compound 0.0949 µM): 105%
- viability, T/C (second compound 0.316 µM, first compound 0.3 µM): 106%
- viability, T/C (second compound 0.316 µM, first compound 0.949 µM): 106%
- viability, T/C (second compound 0.316 µM, first compound 3 µM): 94.9%
- viability, T/C (second compound 1 µM, first compound 0.00949 µM): 100%
- viability, T/C (second compound 1 µM, first compound 0.03 µM): 100%
- viability, T/C (second compound 1 µM, first compound 0.0949 µM): 104%
- viability, T/C (second compound 1 µM, first compound 0.3 µM): 100%
- viability, T/C (second compound 1 µM, first compound 0.949 µM): 105%
- viability, T/C (second compound 1 µM, first compound 3 µM): 82%
- viability, T/C (second compound 3.16 µM, first compound 0.00949 µM): 94.5%
- viability, T/C (second compound 3.16 µM, first compound 0.03 µM): 98.4%
- viability, T/C (second compound 3.16 µM, first compound 0.0949 µM): 92.9%
- viability, T/C (second compound 3.16 µM, first compound 0.3 µM): 91.2%
- viability, T/C (second compound 3.16 µM, first compound 0.949 µM): 93.4%
- viability, T/C (second compound 3.16 µM, first compound 3 µM): 70.8%
- viability, T/C (second compound 10 µM, first compound 0.00949 µM): 94%
- viability, T/C (second compound 10 µM, first compound 0.03 µM): 95.7%
- viability, T/C (second compound 10 µM, first compound 0.0949 µM): 93.5%
- viability, T/C (second compound 10 µM, first compound 0.3 µM): 93.7%
- viability, T/C (second compound 10 µM, first compound 0.949 µM): 83.3%
- viability, T/C (second compound 10 µM, first compound 3 µM): 57.6%

SMILES: O=C(c1ccc(F)c(F)c1Nc1ccc(I)cc1F)N1CC(O)([C@@H]2CCCCN2)C1 + CNC(C)C(=O)NC1CN(S(=O)(=O)c2cccc(S(=O)(=O)N3CCC4CCC(C(=O)NC(c5ccccc5)c5ccccc5)N4C(=O)C(NC(=O)C(C)NC)C3)c2)CCC2CCC(C(=O)NC(c3ccccc3)c3ccccc3)N2C1=O
- IC50 (second compound 0.01 µM): < 0.00316 µM
- IC50 (second compound 0.0316 µM): < 0.00316 µM
- IC50 (second compound 0.1 µM): < 0.00316 µM
- IC50 (second compound 0.316 µM): < 0.00316 µM
- IC50 (second compound 1 µM): < 0.00316 µM
- viability, T/C (second compound 0.01 µM, first compound 0.00316 µM): 1.58%
- viability, T/C (second compound 0.01 µM, first compound 0.01 µM): 1.82%
- viability, T/C (second compound 0.01 µM, first compound 0.0316 µM): 1.57%
- viability, T/C (second compound 0.01 µM, first compound 0.1 µM): 1.24%
- viability, T/C (second compound 0.01 µM, first compound 0.316 µM): 0.45%
- viability, T/C (second compound 0.01 µM, first compound 1 µM): 0.19%
- viability, T/C (second compound 0.0316 µM, first compound 0.00316 µM): 2%
- viability, T/C (second compound 0.0316 µM, first compound 0.01 µM): 1.64%
- viability, T/C (second compound 0.0316 µM, first compound 0.0316 µM): 1.23%
- viability, T/C (second compound 0.0316 µM, first compound 0.1 µM): 0.72%
- viability, T/C (second compound 0.0316 µM, first compound 0.316 µM): 0.39%
- viability, T/C (second compound 0.0316 µM, first compound 1 µM): 0.17%
- viability, T/C (second compound 0.1 µM, first compound 0.00316 µM): 0.99%
- viability, T/C (second compound 0.1 µM, first compound 0.01 µM): 0.94%
- viability, T/C (second compound 0.1 µM, first compound 0.0316 µM): 0.88%
- viability, T/C (second compound 0.1 µM, first compound 0.1 µM): 0.74%
- viability, T/C (second compound 0.1 µM, first compound 0.316 µM): 0.5%
- viability, T/C (second compound 0.1 µM, first compound 1 µM): 0.25%
- viability, T/C (second compound 0.316 µM, first compound 0.00316 µM): 1.14%
- viability, T/C (second compound 0.316 µM, first compound 0.01 µM): 0.91%
- viability, T/C (second compound 0.316 µM, first compound 0.0316 µM): 0.9%
- viability, T/C (second compound 0.316 µM, first compound 0.1 µM): 1.27%
- viability, T/C (second compound 0.316 µM, first compound 0.316 µM): 0.57%
- viability, T/C (second compound 0.316 µM, first compound 1 µM): 0.2%
- viability, T/C (second compound 1 µM, first compound 0.00316 µM): 1.64%
- viability, T/C (second compound 1 µM, first compound 0.01 µM): 1.24%
- viability, T/C (second compound 1 µM, first compound 0.0316 µM): 1.11%
- viability, T/C (second compound 1 µM, first compound 0.1 µM): 1.67%
- viability, T/C (second compound 1 µM, first compound 0.316 µM): 1.13%
- viability, T/C (second compound 1 µM, first compound 1 µM): 0.21%
